Data: ChEMBL document CHEMBL1201862, “PubChem BioAssay data set” (2004)
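Exposure lasted 48 hours, with cells grown in 96-well plates and compounds tested at five concentrations. GI50 = concentration required for 50% inhibition of growth.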 The source made the active and inactive calls. Rule as the data show it: active = GI50 up to about 1.1 µM and inactive = higher.

Legend:
Assay in all cases: inhibition of tumour cell growth, NCI panel, 48 h
HL-60 = system: HL-60
SW-620 = system: SW-620
SF-268 = system: SF-268
SK-MEL-28 = system: SK-MEL-28
HT-29 = system: HT-29
ACHN = system: ACHN
MDA-N = system: MDA-N
SK-MEL-2 = system: SK-MEL-2
IGROV-1 = system: IGROV-1
MDA-MB-231 = system: MDA-MB-231
T47D = system: T47D
NCI-H23 = system: NCI-H23
KM12 = system: KM12
HOP-62 = system: HOP-62
HCT-116 = system: HCT-116
M14 = system: M14
EKVX = system: EKVX
OVCAR-8 = system: OVCAR-8
MDA-MB-435 = system: MDA-MB-435
RPMI-8226 = system: RPMI-8226

Measured: GI50

COC(=O)c1nn2ccc3ccccc3c2c1C(=O)OC
inactive: HL-60 21.3 µM | SW-620 > 100 µM | SF-268 > 100 µM | SK-MEL-28 > 100 µM | HT-29 48 µM | ACHN > 100 µM | MDA-N 34.8 µM | SK-MEL-2 > 100 µM | IGROV-1 88.9 µM | MDA-MB-231 53 µM | T47D > 100 µM | NCI-H23 > 100 µM | KM12 58.7 µM | HOP-62 50.8 µM | HCT-116 65.9 µM | M14 33 µM | EKVX 2.37 µM | OVCAR-8 > 100 µM | MDA-MB-435 76.7 µM

Cc1cc(NS(=O)(=O)c2ccc(NC(NC(=O)OC(C)C)(C(F)(F)F)C(F)(F)F)cc2)nc(C)n1
inactive: HL-60 > 100 µM | SW-620 > 100 µM | SF-268 > 100 µM | SK-MEL-28 > 100 µM | HT-29 > 100 µM | ACHN > 100 µM | MDA-N > 100 µM | IGROV-1 > 100 µM | MDA-MB-231 > 100 µM | T47D 60.7 µM | NCI-H23 > 100 µM | KM12 > 100 µM | HOP-62 > 100 µM | HCT-116 > 100 µM | M14 > 100 µM | RPMI-8226 > 100 µM | EKVX > 100 µM | OVCAR-8 > 100 µM | MDA-MB-435 > 100 µM

C[C@]12CC[C@H]3[C@@H](CC=C4C[C@@H](N5CCCC5)CC[C@@]43C)[C@@H]1C[C@H](N1CCCCC1)[C@@H]2O
inactive: HL-60 28.2 µM | SW-620 > 100 µM | SF-268 > 100 µM | SK-MEL-28 45.3 µM | HT-29 14.3 µM | ACHN > 100 µM | MDA-N 61.1 µM | IGROV-1 > 100 µM | MDA-MB-231 > 100 µM | T47D > 100 µM | NCI-H23 > 100 µM | KM12 > 100 µM | HOP-62 > 100 µM | HCT-116 91.4 µM | M14 20.3 µM | RPMI-8226 26.8 µM | EKVX > 100 µM | OVCAR-8 > 100 µM | MDA-MB-435 45.4 µM

NC(=S)N/N=C1\C(=O)C=C(Nc2ccc(Cl)cc2Cl)c2ccccc21
inactive: HL-60 84.3 µM | SW-620 > 100 µM | SF-268 9.38 µM | SK-MEL-28 > 100 µM | HT-29 > 100 µM | ACHN 10.3 µM | MDA-N > 100 µM | SK-MEL-2 39.3 µM | IGROV-1 22.2 µM | MDA-MB-231 10.3 µM | T47D 23.5 µM | NCI-H23 23.2 µM | KM12 > 100 µM | HOP-62 4.34 µM | HCT-116 56.2 µM | M14 44.5 µM | EKVX 22.1 µM | OVCAR-8 21.9 µM | MDA-MB-435 > 100 µM

CO[C@@H]1C[C@H]2[C@@H]3CC[C@H]([C@@H](C)CO)[C@@]3(C)CC[C@@H]2[C@@]2(C)CC[C@H]3C[C@]312
inactive: HL-60 25.2 µM | SW-620 31.9 µM | SF-268 67 µM | SK-MEL-28 27.6 µM | HT-29 18.5 µM | ACHN 26.5 µM | MDA-N 34.7 µM | IGROV-1 50.9 µM | MDA-MB-231 28.3 µM | T47D 20 µM | NCI-H23 40.7 µM | KM12 19 µM | HOP-62 46.8 µM | HCT-116 34.4 µM | M14 23.3 µM | RPMI-8226 25 µM | EKVX 27.2 µM | OVCAR-8 31 µM | MDA-MB-435 27.5 µM
